According to publication PMC11470957, “Principles of paralog-specific targeted protein degradation engaging the C-degron E3 KLHDC2” (Nature Communications, 2024):
Where “and” joins values, the source holds several entries; their conditions need not be identical. Equal values may be shown once. One block for each compound: values may come before it.

Key:
[1] = target: T1, KLHDC2^SBD (Homo sapiens, UniProt Q9Y2U9); experiment: Surface plasmon resonance binding to KLHDC2; set-up: KLHDC2^SBD (15-361) and its Avi-tagged counterpart were expressed in E. coli Rosetta2 cells; 6XHis-MBP (N, cleaved yes); made in house; host or cells: E. coli Rosetta2; settings: for SPR Rmax / SPR dissociation constant kd: n=1; for Kd: read-out: SPR Kd; for SPR Response: FigS2d
T1 sequence (Q9Y2U9 15-361): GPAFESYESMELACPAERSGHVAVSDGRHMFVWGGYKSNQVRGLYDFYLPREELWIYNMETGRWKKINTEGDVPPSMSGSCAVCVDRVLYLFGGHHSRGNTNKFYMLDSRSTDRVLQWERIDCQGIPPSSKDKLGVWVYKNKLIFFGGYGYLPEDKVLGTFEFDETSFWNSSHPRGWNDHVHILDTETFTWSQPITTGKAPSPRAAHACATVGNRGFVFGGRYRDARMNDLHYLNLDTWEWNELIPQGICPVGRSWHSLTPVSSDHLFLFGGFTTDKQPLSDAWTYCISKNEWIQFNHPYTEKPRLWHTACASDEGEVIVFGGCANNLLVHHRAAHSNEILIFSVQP
Experimental: Surface plasmon resonance (SPR) was utilized to determine kinetic parameters and binding affinity of KLHDC2 substrates using a PioneerFE (Sartorius). Experiments were carried out in 20 mM Tris, 200 mM NaCl, 1 mM TCEP, 0.01% Brij35, and 1% DMSO at pH 7.4 as a running buffer with a 100 µL/min flow rate at 20 °C.
The 10xHis-KLHDC2 was immobilized onto a Ni-NTA-coated biosensor chip (HisCap). The chip surface was conditioned using 10 mM HCl, 50 mM NaOH, and 0.1% SDS (50 µL at 100 µL/min) twice, followed by a 100 mM Tris buffer wash (100 µL at 100 µL/min). The surface was then activated using an injection of 0.5 M EDTA (125 µL at 25 µL/min) followed by an injection of 5 mM NiCl2 (125 µL at 25 µL/min). […] Channel 2 was treated identically to channel 3 except for protein loading to be used as a reference channel. […] 100% of the loop was injected with a 300 s dissociation time. All samples were run in triplicate. Data was analyzed using Qdat software and fit to a simple 1-site model.
The SPR experiments were performed to determine the binding affinities (KD) of KLHDC2-SJ46411 and KLHDC2-SJ46418 complexes. All the experiments were performed using a Biacore 1S+ instrument. […] The running buffer consisted of 20 mM Tris pH 7.5, 200 mM NaCl, 1 mM TCEP, 0.01% Brij35, and 4% DMSO. […] In brief, before the immobilization, the sensor chip surface was conditioned by injecting a mixture of (3:1 v/v) 8 M guanidine hydrochloride and 1 M NaOH at a flow rate of 5 μL/min for 2 min for two times. Then, running buffer was injected at a 30 μl/min flow rate for 1 min 3 times. Next, the Biotin CAPture reagent was injected at a flow rate of 2 μl/min for 5 min. Then, biotinylated KLHDC2 was only injected onto the active channel (channel 2).
Sample preparation was carried out precisely the same as SJ46411. All experiments were performed using a multi-cycle analysis method with a 30 μl/min flow rate, 120 S association, and 240 s dissociation time. All data were reference subtracted and corrected for DMSO mismatch. The sensorgrams were analyzed using Biacore insight evaluation software, and KD was determined using the 1:1 steady-state affinity fitting. Finally, all the analyzed data was replotted using GraphPad Prizm 10 software.

[2] = target: T1, KLHDC2^SBD; experiment: TR-FRET assay, competition with di-Gly degron peptide binding to KLHDC2^SBD; set-up: KLHDC2^SBD (15-361) and its Avi-tagged counterpart were expressed in E. coli Rosetta2 cells; 6XHis-MBP (N, cleaved yes); made in house; host or cells: E. coli Rosetta2; settings: for IC50: inhibition of KLHDC2^SBD binding to a di-Gly degron peptide, read-out: TR-FRET IC50
Experimental: TR-FRET assays were carried out in black 384-well microtiter plates at a final volume of 20 μL per well. An assay cocktail was prepared as a mixture of 50 nM Biotin-KLHDC2 SBD, 20 nM AlexaFluor488-RIC8B peptide, 2.5 nM Tb-Streptavidin (ThermoFisher) in assay buffer (25 mM HEPES, 100 mM NaCl, 0.1% Triton X-100, 0.5 mM DTT, pH 7.5). The assay cocktail was incubated for thirty-minutes at room temperature and 20 μl distributed to assay plates. Molecules were distributed to the plates at the indicated concentration and the assay mixture was incubated for 1 h at room temperature prior to measuring the TR-FRET signal with a PHERAstar FS plate reader (BMG Labtech) equipped with modules for excitation at 337 nm and emissions at 490 and 520 nm. The integration start was set to 100 µs and the integration time to 200 µs. The number of flashes was fixed at 100. The ratio of 520/490 was used as TR-FRET signal in calculations. Assay endpoints were normalized to 100% (buffer only) and used for curve fitting in Prism.

[3] = target: T1, KLHDC2^SBD; experiment: ITC, binary binding of small molecule to KLHDC2^SBD
[4] = ITC Kd, cell: ligand, syringe: KLHDC2^SBD
[5] = cell: ligand, syringe: KLHDC2^SBD

Structure (SMILES): O=C(O)CNC(=O)Cc1csc(-c2ccccc2F)n1 [SJ6145]
SPR Rmax [1]: 8.25 +/- 0.01 | SPR dissociation constant kd [1]: 4.19 s⁻¹ | Kd [1]: 16900 nM | % Inhibition, normalized TR-FRET dose response ([2]; Log Concentration (uM 2.8348)): 0% | % Inhibition, normalized TR-FRET dose response ([2]; Log Concentration (uM 3.13583)): 5.022% | % Inhibition, normalized TR-FRET dose response ([2]; Log Concentration (uM 4.64098)): 41.3917% | % Inhibition, normalized TR-FRET dose response ([2]; Log Concentration (uM 4.94201)): 60.6887% | % Inhibition, normalized TR-FRET dose response ([2]; Log Concentration (uM 5.24304)): 71.5686% | % Inhibition, normalized TR-FRET dose response ([2]; Log Concentration (uM 5.54407)): 79.1487% | IC50 [2]: 42000 nM

Structure (SMILES): COCOc1ccc(-c2nc(CC(=O)NCC(=O)O)cs2)c(Cl)c1 [SJ10278]
SPR Rmax [1]: 11.33 +/- 0.02 | SPR dissociation constant kd [1]: 2.03 s⁻¹ | Kd [1]: 8800 nM and 8790 nM | % Inhibition, normalized TR-FRET dose response ([2]; Log Concentration 2, Rep1): 8.293% | % Inhibition, normalized TR-FRET dose response ([2]; Log Concentration 2, Rep2): 0% | % Inhibition, normalized TR-FRET dose response ([2]; Log Concentration 2, Rep3): 0% | % Inhibition, normalized TR-FRET dose response ([2]; Log Concentration 3.39794, Rep1): 11.5657% | % Inhibition, normalized TR-FRET dose response ([2]; Log Concentration 3.39794, Rep2): 0% | % Inhibition, normalized TR-FRET dose response ([2]; Log Concentration 3.39794, Rep3): 5.531% | % Inhibition, normalized TR-FRET dose response ([2]; Log Concentration 3.87506, Rep1): 26.5428% | % Inhibition, normalized TR-FRET dose response ([2]; Log Concentration 3.87506, Rep2): 8.417% | % Inhibition, normalized TR-FRET dose response ([2]; Log Concentration 3.87506, Rep3): 8.069% | % Inhibition, normalized TR-FRET dose response ([2]; Log Concentration 4.35218, Rep1): 43.4059% | % Inhibition, normalized TR-FRET dose response ([2]; Log Concentration 4.35218, Rep2): 37.2745% | % Inhibition, normalized TR-FRET dose response ([2]; Log Concentration 4.35218, Rep3): 43.973% | % Inhibition, normalized TR-FRET dose response ([2]; Log Concentration 4.81291, Rep1): 67.7021% | % Inhibition, normalized TR-FRET dose response ([2]; Log Concentration 4.81291, Rep2): 64.6478% | % Inhibition, normalized TR-FRET dose response ([2]; Log Concentration 4.81291, Rep3): 77.6282% | IC50 [2]: 24100 nM

Kd [3, 4]: ~260 nM and 220 nM | Kd ([3]; Kd, ITC, syringe KLHDC2, cell compound, Rep1, Rep2): 202 nM and 238 nM | ITC -TΔS [3, 5]: -1.52 +/- 0.04 kcal/mol-1 | ITC stoichiometry of binding N [3, 5]: 0.9 | ITC ΔG [3, 5]: -8.81 +/- 0.07 kcal/mol-1 | ITC ΔH [3, 5]: -7.30 +/- 0.10 kcal/mol-1 | SPR Response ([1]; analyte 0.146484 μM): 4.647 RU | SPR Response ([1]; analyte 0.292969 μM): 7.784 RU | SPR Response ([1]; analyte 0.585938 μM): 11.5982 RU | SPR Response ([1]; analyte 2.34375 μM): 17.8875 RU | SPR Response ([1]; analyte 4.6875 μM): 19.5092 RU | SPR Response ([1]; analyte 9.375 μM): 20.5795 RU | SPR Rmax [1]: 24.50 +/- 0.30 | Kd [1]: 500 nM and 526 nM | % Inhibition, normalized TR-FRET dose response ([2]; Log Concentration 2.39794, Rep1-Rep3): 6.354% and 5.4752% and 4.71% | % Inhibition, normalized TR-FRET dose response ([2]; Log Concentration 2.64098, Rep1-Rep3): 7.948% and 6.2789% and 8.198% | % Inhibition, normalized TR-FRET dose response ([2]; Log Concentration 3.273, Rep1-Rep3): 31.9514% and 32.2878% and 31.935% | % Inhibition, normalized TR-FRET dose response ([2]; Log Concentration 3.87506, Rep1-Rep3): 66.95% and 63.4771% and 63.8138% | % Inhibition, normalized TR-FRET dose response ([2]; Log Concentration 4.39794, Rep1-Rep3): 94.0253% and 93.427% and 93.3896% | % Inhibition, normalized TR-FRET dose response ([2]; Log Concentration 4.69897, Rep1-Rep3): 96.203% and 95.4411% and 96.0366% | % Inhibition, normalized TR-FRET dose response ([2]; Log Concentration 4.94201, Rep1-Rep3): 96.4266% and 96.3416% and 96.2278% | IC50 [2]: 3900 nM
Structure (SMILES): O=C(O)CNC(=O)Cc1csc(-c2ccc3ccccc3c2)n1 [SJ46411]

Structure (SMILES): Cc1sc2c(c1C)C(c1ccc(Cl)cc1)=N[C@@H](CC(=O)N1CCN(CCOc3cccc4ccc(-c5nc(CC(=O)NCC(=O)O)cs5)cc34)CC1)c1nnc(C)n1-2 [SJ46421]
Kd [3, 4]: 304 ± 39 nM | Kd ([3]; Kd, Rep1/Rep2, ITC source data Fig4a, syringe KLHDC2, cell PROTAC alone): 338 nM and 269 nM | ITC -TΔS [3, 5]: -1.03 +/- 0.22 kcal/mol-1 | ITC stoichiometry of binding N [3, 5]: 0.8 | ITC ΔG [3, 5]: -9.1 +/- 0.02 kcal/mol-1 | ITC ΔH [3, 5]: -8.07 +/- 0.22 kcal/mol-1
